Measured values: paper PMC4912613, “A broad analysis of resistance development in the malaria parasite” (Nature Communications, 2016)
Read-outs that look alike come from different tables or passages of the source.

Columns and labels:
[1] = tested on: CYTb-G131S (cytb G131S, parent Dd2); assay: Cross-resistance EC50 assay, CYTb-G131S; type: cell-based, Plasmodium falciparum; conditions: Plasmodium falciparum; SYBR green 72 hour assay; synchronized parasites; 384-well format; strain CYTb:G131S (Dd2 parent)
From the text: (§1) To evaluate potential overlapping activity against known antimalarial drug targets, we performed dose-response studies with each compound against our assembled set of drug-resistant lines and their corresponding parents, in an asexual blood stage proliferation assay (Table 1). Comparisons were made to the drug-sensitive strain 3D7 when a parent was unavailable (TM90C2A, W2 and Dd2). As laboratories conducted EC50 assays with different strains and protocols, all comparisons were made between assays from the same laboratory and under the same assay conditions. Compounds displaying >5-fold EC50 shifts relative to the parent or sensitive strain were flagged as having potentially non-novel targets. Average fold shifts per strain ranged from 0.82 to 2.34, with a median of 1.23 indicating there was not common resistance to any one resistant clone. No resistance patterns were observed when classifying the compounds based on chemical structure, but this was not surprising given the diversity of compounds chosen. On the other hand, given that these confirmed compounds were derived from larger unconfirmed hit lists to which some filtration criteria may have been applied (for example, elimination of obvious dihydrofolate reductase inhibitors[32]), some[10][11][12][13] pre-existing bias may exist in the set. […]
(§2) Alternatively, a SYBR Green-based proliferation approach was used for the 72-h assay, as previously described. Briefly, a culture of either synchronized or asynchronous parasitized RBCs (0.3% parasitemia and 4% haematocrit) in screening medium (identical to supplemented medium above except no serum was added) was exposed to serial drug dilutions. Plates were incubated at 37 °C and gassed with 93% N2, 4% CO2 and 3% O2 for 72 h. Following incubation, 10 × SYBR Green I (Invitrogen; supplied in 10,000 × concentration) in lysis buffer ([…], 5 mM EDTA, 0.16% Saponin wt per vol and 1.6% Triton X vol per vol) was added to the wells and the plates were incubated overnight at room temperature before plate reading. EC50 assays were repeated three times, taking the average EC50 value from each assay set, and removing any outliers using a single iteration of Grubbs' test, eliminating values with z-scores above the critical z-value (α=0.05). The raw EC50 values for synchronized parasites assayed in a 384-well format are listed in Supplementary Data 4. The raw EC50 values for asynchronous parasites assayed in a 96 or 1536-well format are listed in Supplementary Data 5.
(§3) EC50 values for each strain were compared with those of the corresponding parent strain to determine fold-shift changes and identify resistance. To minimize the cause variance between assays, all comparisons were conducted between strains assayed under identical conditions. A one-way ANOVA followed by a Dunnet's post-test was conducted in GraphPad Prism to identify significant changes between the parent and resistant strain.

[2] = tested on: 3D7; assay: Cross-resistance EC50 assay, 3D7 parent / sensitive strain; type: cell-based; conditions: Plasmodium falciparum
From the text: Multidrug resistance alleles, including mutations in P. falciparum chloroquine resistance transporter (pfcrt) and P. falciparum multi-drug resistance transporter 1 (pfmdr1) are very common in field isolates. Therefore, we sought to assess the degree to which pre-existing resistance alleles would contribute to a loss of potency for this diverse collection of small molecule compounds. Fifteen clones derived from three main parent lines were chosen to maximize diversity in mutated pathways and genetic backgrounds, thus representing the variety of resistance seen in the field: 3D7 (ref. [23]), W2 (ref. [24]) or Dd2 (ref. [25]). The 3D7 line originates from the clone of a Netherlands clinical isolate strain[23][26] and is generally considered to be drug sensitive, though it does convey resistance to sulfadoxine. Conversely, W2 (ref. [24], [27]) and Dd2 (ref. [25]) are multi-drug-resistant lines originating from the Indochina III/CDC isolate, which contain point mutations in pfcrt as well as amplifications in pfmdr1 and GTP cyclohydrolase.
To evaluate potential overlapping activity against known antimalarial drug targets, we performed dose-response studies with each compound against our assembled set of drug-resistant lines and their corresponding parents, in an asexual blood stage proliferation assay (Table 1). Comparisons were made to the drug-sensitive strain 3D7 when a parent was unavailable (TM90C2A, W2 and Dd2). As laboratories conducted EC50 assays with different strains and protocols, all comparisons were made between assays from the same laboratory and under the same assay conditions. Compounds displaying >5-fold EC50 shifts relative to the parent or sensitive strain were flagged as having potentially non-novel targets. Average fold shifts per strain ranged from 0.82 to 2.34, with a median of 1.23 indicating there was not common resistance to any one resistant clone. No resistance patterns were observed when classifying the compounds based on chemical structure, but this was not surprising given the diversity of compounds chosen. On the other hand, given that these confirmed compounds were derived from larger unconfirmed hit lists to which some filtration criteria may have been applied (for example, elimination of obvious dihydrofolate reductase inhibitors[32]), some[10][11][12][13] pre-existing bias may exist in the set.
The 48-h assay was carried out in a 96-well format following standard methods using the ^3H-hypoxanthine incorporation assay. The raw EC50 values corresponding to this assay can be found in Supplementary Data 3. Briefly, this assay relies on the parasite incorporation of labelled hypoxanthine that is proportional to P. falciparum growth. A culture of parasitized RBCs (0.5% parasitemia with a percentage of ring stage higher than 70% of total parasitemia, 2.0% haematocrit) in RPMI-1640, […] and 5 μM hypoxanthine was exposed to drug serial dilutions. Plates were incubated for 24 h at 37 °C, 5% CO2, 5% O2 and 90% N2. After 24 h of incubation, ^3H-hypoxanthine was added and plates were incubated for an additional 24-h period. After that, parasites were harvested on a glass fibre filter using a TOMTEC Cell Harvester 96. Filters were dried and melt-on scintillator sheets were used to determine the incorporation of ^3H-hypoxanthine. Radioactivity was measured using a microbeta counter. Data were normalized using the incorporation of the positive (parasitized RBCs without drug) and negative (same culture with artesunate at 2 μM) controls. All assays were conducted in triplicate using three independently grown cultures, and EC50 values were determined using the XLfit add-in module for Excel (version 2.3.1) from Grafit (version 5.3.1.3), where parameter h is the assay hill slope, x is the compound concentration and y is the inhibition of growth effect. The XLfit equation is: […]
Alternatively, a SYBR Green-based proliferation approach was used for the 72-h assay, as previously described. […]

[3] = tested on: GNF156R (PfCARL L830V, S1076I and M81I, parent Dd2); assay: Cross-resistance EC50 assay, GNF156R; type: cell-based; conditions: Plasmodium falciparum, SYBR green 72 hour assay, asynchronized parasites, 96-well or 1536-well format
From the text: as §1, §2, §3

[4] = tested on: ATQ-R4 (cytb M133I and L144S, parent 3D7); assay: Cross-resistance EC50 assay, ATQ-R4; type: cell-based, Plasmodium falciparum; conditions: Plasmodium falciparum, 3D7; SYBR green 72 hour assay; asynchronized parasites; 96-well or 1536-well format; ATQ-R4
From the text: as §1, §2, §3

[5] = SYBR green 72 hour assay, asynchronized parasites, 96-well or 1536-well format, 3D7 parent, read-out: 3D7 (PARENT) EC50 (µM) Average EC50
[6] = SYBR green 72 hour assay, synchronized parasites, 384-well format, strain 3D7 (parent), read-out: 3D7 (PARENT) Average EC50
[7] = hypoxanthine 48-hour assay, synchronized parasites, 96-well format, strain 3D7 (parent), read-out: 3D7 (PARENT) Average EC50
[8] = hypoxanthine 48-hour assay, synchronized parasites, 96-well format, strain 3D7-C9-WT (parent of PfATP4 Mut3), read-out: 3D7-C9-WT (PARENT) Average EC50

Nc1ncc(-c2cn[nH]c2)cc1-c1nc2ccc(F)cc2[nH]1 [MMV023367]
EC50 [1]: 710 nM
EC50 [2, 5]: 1.13 µM
EC50 [2, 6]: 0.519 µM
EC50 [2, 7]: 0.303 µM
EC50 [2, 8]: 0.269 µM
EC50 [3]: 2.54 µM
EC50 [4]: 1.67 µM

CCOc1cc2c(cc1OCC)C(c1cc(Cl)ccc1O)NCC2 (centres unmarked) [MMV000478]
EC50 [1]: 1370 nM
EC50 [2, 5]: 0.613 µM
EC50 [2, 6]: 1.85 µM
EC50 [2, 7]: 1.07 µM
EC50 [2, 8]: 1.28 µM
EC50 [3]: 0.764 µM
EC50 [4]: 0.833 µM

CN(C)CCCN(C)C(=O)C1Cc2cc(-c3ccccc3)ccc2N1S(=O)(=O)c1ccccc1 (centres unmarked) [MMV028895]
EC50 [1]: 390 nM
EC50 [2, 5]: 0.625 µM
EC50 [2, 6]: 0.049 µM
EC50 [2, 7]: 0.081 µM
EC50 [2, 8]: 0.052 µM
EC50 [3]: 3.92 µM
EC50 [4]: 1.07 µM

CC(C)c1cccc(C(NC(=O)C2Cc3ccccc3CN2C(=O)c2cccc(N3CCOCC3)c2)C2CCCC2)c1 (centres unmarked) [MMV028038]
EC50 [1]: 461 nM
EC50 [2, 5]: 1.09 µM
EC50 [2, 6]: 0.822 µM
EC50 [2, 7]: 0.577 µM
EC50 [2, 8]: 0.833 µM
EC50 [3]: 0.654 µM
EC50 [4]: 1.01 µM

O=C(Nc1ccsc1C(=O)NC1CCCCC1)c1ccc(F)cc1 [MMV665939]
EC50 [1]: 2090 nM
EC50 [2, 5]: 1.22 µM
EC50 [2, 6]: 0.726 µM
EC50 [2, 7]: 1.04 µM
EC50 [2, 8]: 2.1 µM
EC50 [3]: 1.28 µM
EC50 [4]: 3.73 µM

CN1CCN(c2ccc(Nc3c4ccccc4nc4ccccc34)cc2)CC1 [MMV006172]
EC50 [1]: 171 nM
EC50 [2, 5]: 0.126 µM
EC50 [2, 6]: 0.046 µM
EC50 [2, 7]: 0.089 µM
EC50 [2, 8]: 0.097 µM
EC50 [3]: 0.32 µM
EC50 [4]: 0.217 µM

CN(C)Cc1ccc(-c2cc3c(-c4ccc(CN(C)C)cc4)ccnc3[nH]2)cc1.O=C(O)C(F)(F)F [MMV022224]
EC50 [1]: 343 nM
EC50 [2, 5]: 0.224 µM
EC50 [2, 6]: 0.242 µM
EC50 [2, 7]: 0.343 µM
EC50 [2, 8]: 0.356 µM
EC50 [3]: 0.429 µM
EC50 [4]: 0.372 µM

c1cncc(-c2cc(N3CCC(CN4CCOCC4)CC3)nc(-c3ccncc3)n2)c1 [MMV668399]
EC50 [1]: 137 nM
EC50 [2, 5]: 0.322 µM
EC50 [2, 6]: 0.089 µM
EC50 [2, 7]: 0.081 µM
EC50 [2, 8]: 0.072 µM
EC50 [3]: 0.827 µM
EC50 [4]: 0.332 µM

CC(NCc1ccccc1)c1cc(Cl)ccc1O (centres unmarked) [MMV665789]
EC50 [1]: 922 nM
EC50 [2, 5]: 0.17 µM
EC50 [2, 6]: 1 µM
EC50 [2, 7]: 1.25 µM
EC50 [2, 8]: 1.25 µM
EC50 [3]: 0.681 µM
EC50 [4]: 0.41 µM

Cc1ccc(Oc2ncccc2C(=O)Cc2cccc3cccnc23)c(C)c1 [MMV020746]
EC50 [1]: 327 nM
EC50 [2, 5]: 0.993 µM
EC50 [2, 6]: 0.096 µM
EC50 [2, 7]: 0.074 µM
EC50 [2, 8]: 0.093 µM
EC50 [3]: 3.38 µM
EC50 [4]: 1.97 µM

CC(C)(C)OC(=O)N1CCN(c2ccccc2NC(=O)c2cccc(C(F)(F)F)c2Oc2ccc(F)cc2)CC1 [MMV030666]
EC50 [1]: 389 nM
EC50 [2, 5]: 0.122 µM
EC50 [2, 6]: 0.627 µM
EC50 [2, 7]: 0.494 µM
EC50 [2, 8]: 0.333 µM
EC50 [3]: 0.364 µM
EC50 [4]: 0.448 µM

CCCN(CCC)CC(O)COc1ccccc1C(=O)Nc1ccccc1 (centres unmarked) [MMV006455]
EC50 [1]: 319 nM
EC50 [2, 5]: 0.148 µM
EC50 [2, 6]: 2.43 µM
EC50 [2, 7]: 0.529 µM
EC50 [3]: 0.083 µM
EC50 [4]: 0.674 µM

c1cc(-c2cnc3ccc(-c4ccc(N5CCOCC5)cc4)nn23)ccn1 [MMV668311]
EC50 [1]: 63 nM
EC50 [2, 5]: 0.014 µM
EC50 [2, 6]: 0.033 µM
EC50 [2, 7]: 0.05 µM
EC50 [2, 8]: 0.018 µM
EC50 [3]: 0.031 µM
EC50 [4]: 0.029 µM

COc1ccc(N2CCN(C(CNC(=O)C3CCCCC3)c3ccc4c(c3)OCO4)CC2)cc1 (centres unmarked) [MMV019662]
EC50 [1]: 583 nM
EC50 [2, 5]: 0.358 µM
EC50 [2, 6]: 0.98 µM
EC50 [2, 7]: 0.34 µM
EC50 [2, 8]: 0.81 µM
EC50 [3]: 0.405 µM
EC50 [4]: 0.716 µM

Cc1nc2ccc3ccc(CNc4ccc(C(=O)CC(CCC(=O)O)C(=O)O)cc4)cc3c2c(=O)[nH]1.Cl (centres unmarked) [MMV027634]
EC50 [1]: 52 nM
EC50 [2, 5]: 0.148 µM
EC50 [2, 6]: 0.029 µM
EC50 [2, 7]: 0.025 µM
EC50 [2, 8]: 0.042 µM
EC50 [3]: 0.229 µM
EC50 [4]: 0.194 µM
